Laboratory results published in ChEMBL document CHEMBL4049391, “Vicinal diaryl azole-based urea derivatives as potential cholesterol lowering agents acting through inhibition of SOAT enzymes” (Eur J Med Chem, 2017).

Experiments:
Rattus norvegicus [1] = organism: Rattus norvegicus; experiment: Inhibition of rat microsomal SOAT assessed as reduction in cholesteryl oleate formation from oleoyl co-enzyme A at 10 uM pretreated for 15 mins followed by oleoyl co-enzyme A addition measured after 10 mins by HPTLC method relative to control
[2] = Inhibition of rat microsomal SOAT assessed as reduction in cholesteryl oleate formation from oleoyl co-enzyme A pretreated for 15 mins followed by oleoyl co-enzyme A addition after 10 mins by HPTLC method
Rattus norvegicus [3] = experiment: Anti-hypercholesterolemic activity in poloxamer-407-induced Wistar rat lipoprotein lipase inhibition model assessed as fold change in triglyceride level at 20 mg/kg administered as single dose via oral gavage pretreated for 4 hrs followed by poloxamer-407 induction measured over 24 hrs (reference value: 80); type: functional
[4] = molecular target: T1, Sterol O-acyltransferase 2 (Homo sapiens, UniProt O75908); experiment: Inhibition of human SOAT2
T1 sequence (O75908 whole entry): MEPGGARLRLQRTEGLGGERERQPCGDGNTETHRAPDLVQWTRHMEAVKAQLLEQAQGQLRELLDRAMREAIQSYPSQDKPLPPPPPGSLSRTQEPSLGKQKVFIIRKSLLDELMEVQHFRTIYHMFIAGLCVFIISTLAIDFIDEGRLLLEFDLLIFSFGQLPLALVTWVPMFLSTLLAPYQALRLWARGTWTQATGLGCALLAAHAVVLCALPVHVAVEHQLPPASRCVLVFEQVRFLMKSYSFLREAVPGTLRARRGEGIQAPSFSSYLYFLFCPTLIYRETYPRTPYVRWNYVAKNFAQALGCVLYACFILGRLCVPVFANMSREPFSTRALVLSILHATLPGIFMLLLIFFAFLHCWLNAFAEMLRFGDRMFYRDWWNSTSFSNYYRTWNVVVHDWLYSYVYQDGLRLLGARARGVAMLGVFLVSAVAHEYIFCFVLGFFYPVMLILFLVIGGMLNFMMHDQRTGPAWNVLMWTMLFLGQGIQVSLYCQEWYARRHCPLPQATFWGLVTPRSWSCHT

Row | inhibition (Rattus norvegicus [1]) | IC50 [2] | pIC50 [2] | IC50 [4] | Structure (SMILES) | fold change (FC) (Rattus norvegicus [3])
1 | 13.5% | 20.1 µM | 4.697 | – | Cc1ccc(-c2nonc2-c2ccc(NC(=O)Nc3ccc(F)cc3F)cc2)cc1 | –
2 | 39.5% | 41.3 µM | 4.384 | – | CCCCNC(=O)Nc1nc(-c2ccc(OC)cc2)c(-c2ccc(NC(C)=O)cc2)s1 | –
3 | 27.6% | 62.9 µM | 4.2014 | – | CCCCNC(=O)Nc1nc(-c2ccc(OC)cc2)c(-c2ccc(Cl)cc2)s1 | –
4 | 44.9% | 9.73 µM | 5.011 | – | CCc1cccc(CC)c1NC(=O)Nc1ccc(-c2nonc2-c2ccc(F)cc2)cc1 | –
5 | 1.73% | 21.3 µM | 4.672 | – | CCCCCCCNC(=O)Nc1nc(-c2ccc(OC)cc2)c(-c2ccc(Cl)cc2)s1 | –
6 | 9.15% | 123 µM | 3.909 | – | CCCCCCCCCCCCNC(=O)Nc1ccc(-c2nonc2-c2ccc(C)cc2)cc1 | –
7 | 56.9% | 10.7 µM | 4.972 | – | COc1ccc(-c2nc(NC(=O)Nc3ccccc3)sc2-c2ccc(Cl)cc2)cc1 | –
8 | 34.5% | 48.6 µM | 4.313 | – | CCCCCCCCCCCCNC(=O)Nc1ccc(-c2sc(C)nc2-c2ccc(F)cc2)cc1 | –
9 | 63% | 5.69 µM | 5.244 | – | CCCCCCCNC(=O)Nc1ccc(-c2sc(C)nc2-c2ccc(F)cc2)cc1 | 50 - 90
10 | – | 103 µM | 3.9863 | – | CCc1cccc(CC)c1NC(=O)Nc1nc(-c2ccc(C)cc2)c(-c2ccc(N)cc2)s1 | –
11 | 54.5% | 12.3 µM | 4.908 | – | CCCCNC(=O)Nc1ccc(-c2nonc2-c2ccc(F)cc2)cc1 | –
12 | – | – | – | 1.74 µM | O=C(NCCCCCCSc1nc(-c2ccccc2)c(-c2ccccc2)[nH]1)Nc1ccc(F)cc1F | –
13 | 39% | 31.9 µM | 4.496 | – | COc1ccc(-c2nc(NC(=O)Nc3ccc(F)cc3F)sc2-c2ccc(NC(C)=O)cc2)cc1 | –
14 | 42.1% | 11.8 µM | 4.926 | – | Cc1nc(-c2ccc(F)cc2)c(-c2ccc(NC(=O)Nc3c(C(C)C)cccc3C(C)C)cc2)s1 | –
15 | 59.9% | 9.58 µM | 5.0186 | – | CCCCNC(=O)Nc1ccc(-c2sc(C)nc2-c2ccc(F)cc2)cc1 | –
16 | 31.6% | 43.6 µM | 4.3606 | – | CCc1cccc(CC)c1NC(=O)Nc1ccc(-c2sc(C)nc2-c2ccc(OC)cc2)cc1 | –

Row | inhibition (Rattus norvegicus [1]) | IC50 [2] | pIC50 [2] | IC50 [4] | Structure (SMILES) | fold change (FC) (Rattus norvegicus [3])
17 | 42% | 12.6 µM | 4.898 | – | COc1cc(NC(=O)Nc2ccc(-c3sc(C)nc3-c3ccc(F)cc3)cc2)cc(OC)c1OC | –
18 | 36.4% | 94 µM | 4.0271 | – | CCCCNC(=O)Nc1nc(-c2ccc(C)cc2)c(-c2ccc(Cl)cc2)s1 | –
19 | 63.3% | 4.04 µM | 5.3936 | – | CCc1cccc(CC)c1NC(=O)Nc1ccc(-c2sc(C)nc2-c2ccc(Cl)cc2)cc1 | 50 - 90
20 | – | – | – | – | CC(C)c1cc(C(C)C)c(CC(=O)NS(=O)(=O)Oc2c(C(C)C)cccc2C(C)C)c(C(C)C)c1 [AVASIMIBE] | 20
21 | 51.7% | 12.1 µM | 4.916 | – | COc1ccc(-c2nc(NC(=O)Nc3ccc(F)cc3F)sc2-c2ccc(NC(C)C)cc2)cc1 | –
22 | 11.4% | 94.8 µM | 4.0233 | – | COc1ccc(-c2nc(C)sc2-c2ccc(NC(=O)Nc3ccccc3)cc2)cc1 | –
23 | 10.6% | 17.7 µM | 4.7512 | – | O=C(Nc1ccccc1)Nc1nc(-c2ccccc2)c(-c2ccccc2)s1 | –
24 | 12.3% | 118 µM | 3.927 | – | Cc1nc(-c2ccc(Cl)cc2)c(-c2ccc(NC(=O)NCCN3CCOCC3)cc2)s1 | –
25 | 30.9% | 30.9 µM | 4.412 | – | CCc1cccc(CC)c1NC(=O)Nc1ccc(-c2sc(C)nc2-c2ccc(C)cc2)cc1 | –
26 | 50.1% | 12.4 µM | 4.905 | – | CCCCCCCCCCCCNC(=O)Nc1ccc(-c2nonc2-c2ccc(F)cc2)cc1 | –
27 | 46.7% | 8.4 µM | 5.075 | – | CCc1cccc(CC)c1NC(=O)Nc1ccc(-c2sc(C)nc2-c2ccc(F)cc2)cc1 | 50 - 90
28 | 46.2% | 12.2 µM | 4.914 | – | CCCCCCCCCCCCNC(=O)Nc1ccc(-c2sc(C)nc2-c2ccc(C)cc2)cc1 | –
29 | 60.7% | 6.27 µM | 5.202 | – | CCCCNC(=O)Nc1ccc(-c2sc(C)nc2-c2ccc(Cl)cc2)cc1 | 50 - 90
30 | 52.2% | 7.85 µM | 5.105 | – | CCCCCCCNC(=O)Nc1ccc(-c2sc(C)nc2-c2ccc(Cl)cc2)cc1 | 50 - 90
31 | 4.97% | 196 µM | 3.7081 | – | Cc1nc(-c2ccc(F)cc2)c(-c2ccc(NC(=O)Nc3ccc(F)cc3F)cc2)s1 | –
32 | 19.6% | 19 µM | 4.721 | – | COc1ccc(-c2nc(NC(=O)Nc3ccc(F)cc3F)sc2-c2ccc(NS(C)(=O)=O)cc2)cc1 | –
